# Reference: PMC12775434, “Ultra-large virtual screening unveils potent agonists of the neuromodulatory orphan receptor GPR139” (Nature Communications, 2025)
# “And” between values parts separate entries of the source, which are not always exact repeats. Equal entries are not always repeated.
# How the values were obtained:
# Format in all cases: cell-based
# [1] = biological target: T1, GPR139 (Homo sapiens, UniProt Q6DWJ6); experiment: Ca2+ mobilization assay, agonist mode, stable GPR139-CHOk1 cell line; conditions: for EC50 / Emax: Supplementary Table 2, mean ± SEM; for EC50: read-out: pEC50 Ca2+ (converted); for Emax: normalized to Lundbeck Cmp 1a, read-out: Emax (%) Ca2+
# T1 sequence (Q6DWJ6 1-353): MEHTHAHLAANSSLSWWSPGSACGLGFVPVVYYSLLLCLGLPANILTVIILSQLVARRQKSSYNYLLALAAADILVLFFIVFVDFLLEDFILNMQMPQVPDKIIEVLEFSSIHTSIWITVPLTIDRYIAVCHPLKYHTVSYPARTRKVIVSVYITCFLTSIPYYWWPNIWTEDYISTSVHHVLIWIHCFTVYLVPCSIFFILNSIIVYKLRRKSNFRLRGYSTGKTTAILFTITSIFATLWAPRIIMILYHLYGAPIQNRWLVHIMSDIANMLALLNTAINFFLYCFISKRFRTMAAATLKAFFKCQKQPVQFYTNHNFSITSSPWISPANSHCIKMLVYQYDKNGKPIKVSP
# In short: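 Agonist activity of compounds is assessed in stably transfected CHO-K1 cells using the calcium dye Fluo-4 at 37 °C in HEPES-buffered HBSS (pH 7.4). Efficacy is expressed relative to the reference agonist Lundbeck Cmp 1a, set as 100%.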
# [2] = biological target: T1, GPR139; experiment: Ca2+ mobilization assay, antagonist mode (EC80 800 nM Lundbeck Cmp 1a after 20 min preincubation), GPR139-CHOk1; conditions: individual replicates (Supplementary Figure 4)
# In short: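 Fluo-4-loaded GPR139-CHOk1 cells in HEPES-buffered HBSS (pH 7.4, 2.5 mM probenecid) given test compounds at 10 µM, then after 20 min challenged with 800 nM Lundbeck Cmp 1a (EC80). Calcium fluorescence read at 37 °C, 485/525 nm.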
# [3] = biological target: T2, human muscarinic acetylcholine M1 receptor (M1R) (Homo sapiens, UniProt P11229); experiment: Ca2+ mobilization counter-screen in M1R-CHOk1 cells; conditions: individual replicates (Supplementary Figure 5)
# T2 sequence (P11229 1-460): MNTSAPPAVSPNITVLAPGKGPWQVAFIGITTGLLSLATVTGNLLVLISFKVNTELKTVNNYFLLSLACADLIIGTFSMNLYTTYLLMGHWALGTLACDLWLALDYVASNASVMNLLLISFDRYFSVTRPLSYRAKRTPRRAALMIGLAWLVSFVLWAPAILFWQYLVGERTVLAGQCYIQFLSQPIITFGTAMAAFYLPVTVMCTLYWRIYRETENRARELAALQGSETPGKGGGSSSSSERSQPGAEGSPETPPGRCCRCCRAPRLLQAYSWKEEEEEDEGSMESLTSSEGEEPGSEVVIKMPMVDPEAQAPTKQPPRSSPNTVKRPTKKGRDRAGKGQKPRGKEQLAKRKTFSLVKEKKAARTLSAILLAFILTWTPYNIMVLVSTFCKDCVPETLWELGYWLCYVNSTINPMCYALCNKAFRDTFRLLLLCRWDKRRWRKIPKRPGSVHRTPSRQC
# In short: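 M1R-CHOk1 cells seeded 20–24 h, loaded with 2 µM Fluo-4 AM (2.5 mM probenecid, 0.01% Pluronic F-68) for 1 h at 37 °C in HBSS/20 mM HEPES pH 7.4. Compounds added after baseline (≤0.3% DMSO); calcium fluorescence read at 37 °C, ex 485/em 525 nm.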
# [4] = Agonist mode, individual replicates (Supplementary Figure 4)
# [5] = log [Compound] M = -4.5, individual replicate columns
# [6] = log [Compound] M = -5.0, individual replicate columns
# [7] = log [Compound] M = -5.5, individual replicate columns
# [8] = log [Compound] M = -6.0, individual replicate columns
# [9] = log [Compound] M = -6.5, individual replicate columns
# [10] = log [Compound] M = -7.0, individual replicate columns
# [11] = log [Compound] M = -7.5, individual replicate columns
# [12] = log [Compound] M = -8.0, individual replicate columns
# [13] = log [Compound] M = -8.5, individual replicate columns
# [14] = log [Compound] M = -9.0, individual replicate columns
Compound,"Ca2+ signal (% of Cmp 1a) [1, 4]",fold decrease in potency relative to a similar phenyl substituted compound (1.3) ([1]; Ca2+ mobilization EC50),EC50 [1],Emax [1],"Ca2+ signal (% of Cmp 1a) [1, 5]","Ca2+ signal (% of Cmp 1a) [1, 6]","Ca2+ signal (% of Cmp 1a) [1, 7]","Ca2+ signal (% of Cmp 1a) [1, 8]","Ca2+ signal (% of Cmp 1a) [1, 9]","Ca2+ signal (% of Cmp 1a) [1, 10]","Ca2+ signal (% of Cmp 1a) [1, 11]","Ca2+ signal (% of Cmp 1a) [1, 12]","Ca2+ signal (% of Cmp 1a) [1, 13]","Ca2+ signal (% of Cmp 1a) [1, 14]",Ca2+ signal (% of Cmp 1a) [2],Ca2+ signal (% of Carbachol) [3],change in potency with larger substituents on the thiophene ring ([1]; Ca2+ mobilization)
"Cc1cc(-c2nc(CC(=O)NC(C)c3ccccc3)no2)ccn1 (centres unmarked) [Compound 1.19, CC(C1=CC=CC=C1)NC(CC2=NOC(C3=CC(C)=NC=C3)=N2)=O]",76 % of Cmp 1a and 74 % of Cmp 1a and 71 % of Cmp 1a,4- to 16 fold,1000 nM,109 ± 10%,117 % of Cmp 1a and 90 % of Cmp 1a and 116 % of Cmp 1a,97 % of Cmp 1a and 89 % of Cmp 1a and 99 % of Cmp 1a,77 % of Cmp 1a and 75 % of Cmp 1a and 88 % of Cmp 1a,61 % of Cmp 1a and 62 % of Cmp 1a and 60 % of Cmp 1a,30 % of Cmp 1a and 19 % of Cmp 1a and 26 % of Cmp 1a,9 % of Cmp 1a and 6.33 % of Cmp 1a and 5.33 % of Cmp 1a,4.67 % of Cmp 1a and 0.667 % of Cmp 1a and -2.67 % of Cmp 1a,3 % of Cmp 1a and -3.33 % of Cmp 1a and -3.67 % of Cmp 1a,13 % of Cmp 1a and -4.67 % of Cmp 1a and 2.33 % of Cmp 1a,7 % of Cmp 1a and -8 % of Cmp 1a and -1.33 % of Cmp 1a,5.67 % of Cmp 1a and -2 % of Cmp 1a and -8 % of Cmp 1a,8 % of Carbachol and -12 % of Carbachol and 7 % of Carbachol,
"Cc1ccc(-c2nc(CC(=O)NC(C)c3ccccc3)no2)cc1C (centres unmarked) [Compound 1.20, CC(C1=CC=CC=C1)NC(CC2=NOC(C3=CC(C)=C(C)C=C3)=N2)=O]",61 % of Cmp 1a and 51 % of Cmp 1a and 42 % of Cmp 1a,,1260 nM,86 ± 11%,64 % of Cmp 1a and 88 % of Cmp 1a and 90 % of Cmp 1a,59 % of Cmp 1a and 87 % of Cmp 1a and 93 % of Cmp 1a,48 % of Cmp 1a and 72 % of Cmp 1a and 74 % of Cmp 1a,21 % of Cmp 1a and 45 % of Cmp 1a and 55 % of Cmp 1a,9 % of Cmp 1a and 20 % of Cmp 1a and 28 % of Cmp 1a,10 % of Cmp 1a and 20 % of Cmp 1a and 26 % of Cmp 1a,10 % of Cmp 1a and -2 % of Cmp 1a and 9 % of Cmp 1a,2 % of Cmp 1a and -1.33 % of Cmp 1a and 4.67 % of Cmp 1a,7 % of Cmp 1a and -0.667 % of Cmp 1a and -6 % of Cmp 1a,5 % of Cmp 1a and 1.33 % of Cmp 1a and 10 % of Cmp 1a,4 % of Cmp 1a and 29 % of Cmp 1a and -0.333 % of Cmp 1a,-9 % of Carbachol and 12 % of Carbachol and 5 % of Carbachol,
"Cc1c(-c2nc(CC(=O)NC(C)c3ccccc3)no2)sc2nccn12 (centres unmarked) [Compound 1.21, CC(C1=CC=CC=C1)NC(CC2=NOC(C3=C(C)N4C=CN=C4S3)=N2)=O]",51 % of Cmp 1a and 103 % of Cmp 1a and 63 % of Cmp 1a,,1260 nM,88 ± 6%,99 % of Cmp 1a and 106 % of Cmp 1a and 96 % of Cmp 1a and 82 % of Cmp 1a and 98 % of Cmp 1a,106 % of Cmp 1a and 89 % of Cmp 1a and 74 % of Cmp 1a and 87 % of Cmp 1a and 93 % of Cmp 1a,113 % of Cmp 1a and 82 % of Cmp 1a and 55 % of Cmp 1a and 93 % of Cmp 1a and 79 % of Cmp 1a,58 % of Cmp 1a and 46 % of Cmp 1a and 13 % of Cmp 1a and 61 % of Cmp 1a and 35 % of Cmp 1a,30 % of Cmp 1a and 22 % of Cmp 1a and -9 % of Cmp 1a and 34 % of Cmp 1a and 9 % of Cmp 1a,11 % of Cmp 1a and 3.59 % of Cmp 1a and -6 % of Cmp 1a and 13 % of Cmp 1a and 2 % of Cmp 1a,-0.321 % of Cmp 1a and 1.12 % of Cmp 1a and 16 % of Cmp 1a and 9 % of Cmp 1a and 1.36 % of Cmp 1a,-0.311 % of Cmp 1a and 5 % of Cmp 1a and 16 % of Cmp 1a and 8 % of Cmp 1a and 4 % of Cmp 1a,-0.779 % of Cmp 1a and 5.49 % of Cmp 1a and -3.74 % of Cmp 1a and 4.43 % of Cmp 1a and 2.79 % of Cmp 1a,6.41 % of Cmp 1a and 9 % of Cmp 1a and -8 % of Cmp 1a and 7.41 % of Cmp 1a and -0.105 % of Cmp 1a,8 % of Cmp 1a and 24 % of Cmp 1a and 21 % of Cmp 1a,-6 % of Carbachol and -2 % of Carbachol and -1.22 % of Carbachol,three-fold reduction to a complete loss of activity
